From US20250230147A1, “LACTAMS AS CBL-B INHIBITORS” (Genentech, Inc., priority 2021, published 2025) come the findings set out here.

One assay deals with c-Cbl (Homo sapiens (Human), UniProt P22681). As to the kind of experiment: C-Cbl LCK Ub TR-FRET assay (c-cbl Lck HTRF). The following applies: for (fold-selectivity): C-cbl Lck HTRF IC50 relative to Cbl-b Lck HTRF IC50. The class given is biochemical. The essentials: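 Detection reagents added, brief spin, 20 min RT. IC50 fit normalized to no-LCK (low) and DMSO (high) controls.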
Sequence of c-Cbl (P22681 47-435): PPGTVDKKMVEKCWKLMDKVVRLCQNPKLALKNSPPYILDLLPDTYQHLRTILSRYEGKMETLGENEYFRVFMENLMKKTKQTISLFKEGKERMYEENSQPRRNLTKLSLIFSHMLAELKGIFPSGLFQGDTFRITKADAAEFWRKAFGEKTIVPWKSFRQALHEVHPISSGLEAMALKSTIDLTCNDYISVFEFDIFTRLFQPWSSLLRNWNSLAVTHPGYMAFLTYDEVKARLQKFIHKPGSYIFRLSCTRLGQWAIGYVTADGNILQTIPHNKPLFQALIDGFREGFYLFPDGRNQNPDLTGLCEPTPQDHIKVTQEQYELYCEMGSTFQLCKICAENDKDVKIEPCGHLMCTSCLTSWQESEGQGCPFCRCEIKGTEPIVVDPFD

The next assay addresses Cbl-b (Homo sapiens (Human), UniProt Q13191). As to the kind of experiment: Cbl-b LCK Ub TR-FRET assay (Cbl-b Lck HTRF). In kind it is biochemical. The essentials:
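Biotin-Cbl-b preincubated with compound (10-point 3-fold series) 60 min, then His-LCK with 1 mM ATP (2× mixture) added for 90 min at room temperature. Ubiquitination detected by TR-FRET using HA-ubiquitin/UBE2D2 adduct, anti-HA-D2 and streptavidin-Eu; IC50 normalised to no-LCK and DMSO controls.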

Where a name gives a salt, the structure may show the parent alone.

Sequence of Cbl-b (Q13191 40-426): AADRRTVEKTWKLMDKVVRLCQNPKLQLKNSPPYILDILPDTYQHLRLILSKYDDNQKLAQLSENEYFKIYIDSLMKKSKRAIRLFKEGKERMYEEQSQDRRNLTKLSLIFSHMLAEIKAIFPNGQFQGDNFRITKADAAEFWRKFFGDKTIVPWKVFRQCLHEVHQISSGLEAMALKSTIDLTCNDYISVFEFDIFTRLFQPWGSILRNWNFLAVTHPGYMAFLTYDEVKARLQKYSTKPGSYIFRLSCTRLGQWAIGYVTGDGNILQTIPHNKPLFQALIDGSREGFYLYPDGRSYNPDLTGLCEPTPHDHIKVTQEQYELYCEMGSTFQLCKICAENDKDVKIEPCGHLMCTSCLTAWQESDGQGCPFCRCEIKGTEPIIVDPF

Take `CN1CCN(Cc2cc3c(c(C(F)(F)F)c2)CN(c2cccc(C4(Cc5nncn5C)CC(F)(F)C4)c2)C3=O)CC1C1CC1` (centres unmarked) [Compound 403, 6-((3-cyclopropyl-4-methylpiperazin-1-yl)methyl)-2-(3-(3,3-difluoro-1-((4-methyl-4H-1,2,4-triazol-3-yl)methyl)cyclobutyl)phenyl)-4-(trifluoromethyl)isoindolin-1-one]: at c-Cbl, the IC50 was found to be 0.045 µM and the “(fold-selectivity)” value is “(1.0x)”. On Cbl-b, half-maximal inhibition (IC50) required 0.045 µM.

As to `C[C@@H]1CN(Cc2cc3c(c(C(F)(F)F)c2)CN(c2cccc(C4([C@@H](F)c5nncn5C)COC4)c2)C3=O)CCCO1` [Compound 119, 2-(3-(3((R)-fluoro(4-methyl-4H-1,2,4-triazol-3-yl)methyl)oxetan-3-yl)phenyl)-6-(((R)-2-methyl-1,4-oxazepan-4-yl)methyl)-4-(trifluoromethyl)isoindolin-1-one], the IC50 against c-Cbl was determined as 0.052 µM; on Cbl-b, 0.048 µM. The “(fold-selectivity)” value at c-Cbl is 1.1x.

As to `CC(C)[C@H]1CNCCN1Cc1cc2c(c(C(F)(F)F)c1)CN(c1cccc(C3([C@H](F)c4nncn4C)COC3)c1)C2=O` [Compound 97, 2-(3-(3-((S)-fluoro(4-methyl-4H-1,2,4-triazol-3-yl)methyl)oxetan-3-yl)phenyl)-6-(((S)-2-isopropylpiperazin-1-yl)methyl)-4-(trifluoromethyl)isoindolin-1-one], on c-Cbl, the IC50 stood at 0.038 µM and the “(fold-selectivity)” value is on record as 1.9x. The IC50 against Cbl-b turned out to be 0.02 µM.

For `Cc1cn[nH]c1C(F)C1(c2cccc(N3Cc4c(cc(CN5CCN(C)C[C@@H]5C(C)C)cc4C(F)(F)F)C3=O)c2)COC1` (stereo partly drawn) [Compound 237, 2-(3-(3-(fluoro(4-methyl-1H-pyrazol-5-yl)methyl)oxetan-3-yl)-phenyl)-6-(((S)-2-isopropyl-4-methylpiperazin-1-yl)methyl)-4-(trifluoromethyl)isoindolin-1-one], the values for the IC50 against c-Cbl and on Cbl-b were 0.18 µM and 0.1 µM, respectively. Also, the “(fold-selectivity)” value on c-Cbl is “(1.8x)”.

Consider `CO[C@@H]1CCN(Cc2cc3c(c(C(F)(F)F)c2)CN(c2cccc(C4([C@@H](F)c5nncn5C)COC4)c2)C3=O)C1` [Compound 47, 2-(3-(3-((R)-fluoro(4-methyl-4H-1,2,4-triazol-3-yl)methyl)oxetan-3-yl)phenyl)-6-(((R)-3-methoxypyrrolidin-1-yl)methyl)-4-(trifluoromethyl)isoindolin-1-one], for which, on c-Cbl, half-maximal inhibition (IC50) required 0.18 µM and the “(fold-selectivity)” value was 1.8x. At Cbl-b, this compound came in with an IC50 of 0.1 µM.

`C[C@H](NC1(C)CCC1)c1cc2c(c(C(F)(F)F)c1)CN(c1cccc(C3(Cc4nncn4C)CC(F)(F)C3)c1)C2=O` [Compound 246, (S)-2-(3-(3,3-difluoro-1-((4-methyl-4H-1,2,4-triazol-3-yl)methyl)-cyclobutyl)phenyl)-6-(1-((1-methylcyclobutyl)amino)ethyl)-4-(trifluoromethyl)isoindolin-1-one]: at c-Cbl, the IC50 stood at 0.0044 µM and the “(fold-selectivity)” value is listed as “(0.76x)”. For the same compound, it took 0.0058 µM to reach half-maximal inhibition on Cbl-b (IC50).

`C=CCNc1cc(C2(Cc3nncn3C)CCC2)cc(N2Cc3c(cc(CN4CCN(C)C[C@@H]4C(C)C)cc3C(F)(F)F)C2=O)n1` [Compound 275, (S)-2-(6-(allylamino)-4-(1-((4-methyl-4H-1,2,4-triazol-3-yl)methyl)cyclobutyl)pyridin-2-yl)-6-((2-isopropyl-4-methylpiperazin-1-yl)methyl)-4-(trifluoromethyl)isoindolin-1-one]: on c-Cbl, 0.007 µM corresponded to half-maximal inhibition (IC50) and the “(fold-selectivity)” value is on record as “(1.0x)”. Moreover, at Cbl-b, the IC50 turned out to be 0.007 µM.

In the case of `Cl.Cn1cnnc1CC1(c2cc(NCc3ccncc3)nc(N3Cc4c(cc(CNC5(C)CCC5)cc4C(F)(F)F)C3=O)c2)CCC1` [Compound 380, 2-(4-(1-((4-methyl-4H-1,2,4-triazol-3-yl)methyl)cyclobutyl)-6-((pyridin-4-ylmethyl)amino)pyridin-2-yl)-6-(((1-methylcyclobutyl)amino)methyl)-4-(trifluoromethyl)isoindolin-1-one hydrochloride], on c-Cbl, the IC50 stood at 0.099 µM and the “(fold-selectivity)” value is on record as “(101x)”. Also, it took 0.089 µM to reach half-maximal inhibition at Cbl-b (IC50).

Regarding `Cn1cnnc1[C@H](F)C1(c2cccc(N3Cc4c(cc(CN5CC6(CCO6)C5)cc4C(F)(F)F)C3=O)c2)COC1` [Compound 139, (R)-6-(1-oxa-6-azaspiro[3.3]heptan-6-ylmethyl)-2-(3-(3-(fluoro(4-methyl-4H-1,2,4-triazol-3-yl)methyl)oxetan-3-yl)phenyl)-4-(trifluoromethyl)isoindolin-1-one], the IC50 at c-Cbl amounted to 0.64 µM; on Cbl-b, 0.23 µM. For the same compound, the “(fold-selectivity)” value at c-Cbl was found to be 2.8x.

As for `Cn1cnnc1CC1(c2cc(-c3ccc4ccccc4c3)nc(N3Cc4c(cc(CNC5(C)CCC5)cc4C(F)(F)F)C3=O)c2)CCC1` [Compound 350, 2-(4-(1-((4-methyl-4H-1,2,4-triazol-3-yl)methyl)cyclobutyl)-6-(naphthalen-2-yl)pyridin-2-yl)-6-(((1-methylcyclobutyl)amino)methyl)-4-(trifluoromethyl)isoindolin-1-one], the results for the IC50 on c-Cbl and on Cbl-b were 0.016 µM and 0.028 µM, respectively. In addition, the “(fold-selectivity)” value on c-Cbl is given as “(0.57x)”.

As for `Cn1cnnc1CC1(c2cccc(N3Cc4c(cc(CNC5(C)CCC5)cc4C(F)(F)F)C3=O)c2)COC1` [Compound 301, 2-(3-(3-((4-methyl-4H-1,2,4-triazol-3-yl)methyl)oxetan-3-yl)phenyl)-6-(((1-methylcyclobutyl)amino)methyl)-4-(trifluoromethyl)isoindolin-1-one], at c-Cbl, the IC50 was 0.01 µM and the “(fold-selectivity)” value is listed as “(0.86x)”. At Cbl-b, this compound registered an IC50 of 0.012 µM.

With `Cn1cnnc1[C@H](F)C1(c2cccc(N3Cc4c(cc(CN5CC[C@H](F)C5)cc4C(F)(F)F)C3=O)c2)COC1` [Compound 82, 2-(3-(3-((R)-fluoro(4-methyl-4H-1,2,4-triazol-3-yl)methyl)oxetan-3-yl)phenyl)-6-(((S)-3-fluoropyrrolidin-1-yl)methyl)-4-(trifluoromethyl)isoindolin-1-one], on c-Cbl, the IC50 stood at 0.068 µM and the “(fold-selectivity)” value came to 2.4x. On Cbl-b, this compound displayed an IC50 of 0.028 µM.

Consider `CCOc1cc(C2(Cc3nncn3C)CCC2)cc(N2Cc3c(cc(CNC4(C)CCC4)cc3C(F)(F)F)C2=O)n1` [Compound 285, 2-(6-ethoxy-4-(1-((4-methyl-4H-1,2,4-triazol-3-yl)methyl)cyclobutyl)pyridin-2-yl)-6-(((1-methylcyclobutyl)amino)methyl)-4-(trifluoromethyl)isoindolin-1-one], for which, on c-Cbl, the IC50 turned out to be 0.0053 µM and the “(fold-selectivity)” value was “(0.71x)”. At Cbl-b, this compound returned an IC50 of 0.008 µM.

As to `Cn1cnnc1CC1(c2cccc(N3Cc4c(cc(CN5CCN[C@@H](C6CC6)C5)cc4C(F)(F)F)C3=O)c2)CC(F)(F)C1` [Compound 431, (S)-6-((3-cyclopropylpiperazin-1-yl)methyl)-2-(3-(3,3-difluoro-1-((4-methyl-4H-1,2,4-triazol-3-yl)methyl)cyclobutyl)phenyl)-4-(trifluoromethyl)isoindolin-1-one], on c-Cbl, the IC50 turned out to be 0.042 µM and the “(fold-selectivity)” value is “(0.87x)”. Further, it took 0.048 µM to reach half-maximal inhibition at Cbl-b (IC50).

Take `CC(C)[C@H]1CN(C)CCN1Cc1cc2c(c(C(F)(F)F)c1)CN(c1cc(C3(Cc4nncn4C)CCC3)cc(C#N)n1)C2=O` [Compound 299, (S)-6-(6-((2-isopropyl-4-methylpiperazin-1-yl)methyl)-1-oxo-4-(trifluoromethyl)isoindolin-2-yl)-4-(1-((4-methyl-4H-1,2,4-triazol-3-yl)methyl)cyclobutyl)picolinonitrile]: the IC50 against c-Cbl stood at 0.0054 µM; against Cbl-b, 0.011 µM. Further, the “(fold-selectivity)” value on c-Cbl was “(0.50x)”.

Consider `CCn1cnnc1[C@H](F)C1(c2cccc(N3Cc4c(cccc4C(F)(F)F)C3=O)c2)COC1` [Compound 272, (R)-2-(3-(3-((4-ethyl-4H-1,2,4-triazol-3-yl)fluoromethyl)oxetan-3-yl)phenyl)-4-(trifluoromethyl)isoindolin-1-one], for which, on c-Cbl, the IC50 was found to be 11 µM and the “(fold-selectivity)” value was “(1.3x)”. This compound also returned an IC50 against Cbl-b of 8.2 µM.

Take `CC(C)[C@H]1CN(CCF)CCN1Cc1cc2c(c(C(F)(F)F)c1)CN(c1cccc(C3([C@@H](F)c4nncn4C)COC3)c1)C2=O` [Compound 197, 2-(3-(3-((R)-fluoro(4-methyl-4H-1,2,4-triazol-3-yl)methyl)oxetan-3-yl)phenyl)-6-(((S)-4-(2-fluoroethyl)-2-isopropylpiperazin-1-yl)methyl)-4-(trifluoromethyl)isoindolin-1-one]: at c-Cbl, the IC50 worked out at 0.013 µM and the “(fold-selectivity)” value came out at 1.6x. For the same compound, the IC50 against Cbl-b was determined as 0.008 µM.

Regarding `CC(=O)NCCCCNc1cc(C2(Cc3nncn3C)CCC2)cc(N2Cc3c(cc(CNC4(C)CCC4)cc3C(F)(F)F)C2=O)n1` [Compound 314, N-(4-((4-(1-((4-methyl-4H-1,2,4-triazol-3-yl)methyl)cyclobutyl)-6-(6-(((1-methylcyclobutyl)amino)methyl)-1-oxo-4-(trifluoromethyl)isoindolin-2-yl)pyridin-2-yl)amino)butyl)acetamide formate], the results for the IC50 at c-Cbl and on Cbl-b were 0.031 µM and 0.027 µM, respectively.

In the case of `Cn1cnnc1CC1(c2cccc(N3Cc4c(cc(CN5CC[C@H](CCl)C5)cc4C(F)(F)F)C3=O)c2)COC1` [Compound 102, (S)-6-((3-(chloromethyl)pyrrolidin-1-yl)methyl)-2-(3-(3-((4-methyl-4H-1,2,4-triazol-3-yl)methyl)oxetan-3-yl)phenyl)-4-(trifluoromethyl)isoindolin-1-one], on c-Cbl, the IC50 was 0.025 µM and the “(fold-selectivity)” value amounted to 1.4x. Further, at Cbl-b, the IC50 was 0.018 µM.
